Starred links: 1 amine or outer side, 2 acyl side, 3 side chain; linkers in the order of their positions; H or OH if unused. Positions of bridges follow the written chain, without caps; N, C: chain ends. Non-standard residues stand in square brackets, D forms with d. Residues, ends and D or L forms follow the SMILES beside them. ξ: configuration not given here. X1 = O=C([C@@H]1CCN=C2C(N[*:1])=Cc3cc(O)c(O)cc3N21)[*:2]; ξOrn(N(OH)CHO) = NC(CCCN(O)C=O)C(=O)O; Suc = O=C(CCC(=O)[*:2])[*:1]; ξK = NCCCCC(N)C(=O)O; ξS = NC(CO)C(=O)O
Assays:
Type in all cases: cell-based, Pseudomonas aeruginosa
[1] = tested on: PA14 ΔfpvB mutant; test: Growth curves with DSX and siderophores, ΔfpvB; conditions: 20 h
Protocol: Supplementary file : FIG S1 (A) FpvB is expressed in WT PA14 and the ΔfpvA mutant grown in 10:90. PilF was used as a loading control for outer membrane proteins. (B) FpvA is expressed from WT PA14 grown in 10:90. […] PilF was used as a loading control for outer membrane proteins. (C) Growth curves of PA14 and mutants with DSX and different siderophores in 10:90. PA14, ΔfpvA, ΔfpvB, ΔfpvA ΔfpvB, and ΔpvdA ΔpchA strain growth. Blue indicates control, purple indicates treatment with 64 μg/mL DSX, yellow indicates treatment with 10 μg/mL pyoverdine (PA14), and red indicates treatment with 64 μg/mL DSX and 10 μg/mL pyoverdine (PA14). (D) ΔfpvA, ΔfpvA ΔfpvB, and ΔpvdA ΔpchA strain growth. Blue indicates control, purple indicates treatment with 64 μg/mL DSX, grey indicates treatment with 10 μg/mL ferrichrome, and red indicates treatment with 64 μg/mL DSX and 10 μg/mL ferrichrome. (E) ΔfpvA, ΔfpvA ΔfpvB, and ΔpvdA ΔpchA strain growth. […] Download FIG S1, EPS file, 8.5 MB.
Another explanation for the susceptibility of the ΔfpvA mutant to DSX is that the mutant produces less pyoverdine compared to WT cells due to loss of the signaling cascade that controls siderophore production in response to its binding to FpvA ([25]). To differentiate whether the fpvA mutant was susceptible to DSX because of reduced pyoverdine production or because FpvB was a poor pyoverdine transporter, we treated the WT, ΔfpvA, ΔfpvB, and ΔfpvA ΔfpvB strains with DSX (64 μg/mL) without and with exogenous pyoverdine (10 μg/mL) for 20 h (Fig. 1; see also Fig. S1C). Growth of the ΔfpvA mutant should be restored if there are functional pyoverdine transporters. […] The growth of the ΔfpvA ΔfpvB mutant was inhibited by DSX and pyoverdine, confirming previously published results ([18]).

[2] = tested on: PA14 ΔfpvA ΔfpvB ΔfiuA ΔfoxA pHERD20T-fpvB R191A; test: Growth of quadruple mutant expressing FpvB R191A; conditions: 10:90 + 2% arabinose
Protocol: (§1) Site-directed mutagenesis was used to confirm the docking predictions and to define the molecular determinants for ligand uptake through FpvB (Fig. 4C). We generated 17 single amino acid substitutions in FpvB and expressed each of them in trans in the quadruple ΔfpvA ΔfpvB ΔfiuA ΔfoxA mutant. Their ability to complement growth of the mutant in the presence of ferrichrome and ferrioxamine B and to restore TS susceptibility was assessed. […] The mutant transporters were tagged with a C-terminal FLAG tag to evaluate expression levels. FLAG-tagged FpvB mutants had WT levels of expression except for Y216T and W347V, which were expressed at 140% and 25% of WT, respectively.
(§2) The ΔfpvA ΔfpvB ΔfiuA ΔfoxA mutant was complemented with WT fpvA, fpvB, fiuA, and foxA in trans as controls (Fig. 4E).
(§3) MIC assays were conducted as previously described ([13], [14]). Overnight cultures were grown in LB from a glycerol stock at 37°C with shaking (200 rpm). Subcultures in 10:90 (1:100 dilution) were cultured for 4 h. Cells were adjusted to an optical density at 600 nm (OD600) of 0.1/500 in 10:90. All compounds were serially diluted 2-fold in dimethyl sulfoxide (DMSO) or H2O at 75× the final concentration. […] The next day, the OD600 was determined with a plate reader (Thermo Scientific) and normalized to percent of growth of the vehicle control after subtracting the OD600 from blank media.

[3] = tested on: PA14 ΔfpvB ΔfoxA mutants; test: Growth phenotypes of deletion mutants, ΔfpvB ΔfoxA; conditions: 10 μg/mL ferrioxamine B, 10:90
Excerpt: PA14, ΔfpvA, ΔfpvB, and ΔfpvA ΔfpvB strains treated with TS (A) and DSX (B) in 10:90. Green indicates growth, and white indicates no growth. Growth is expressed as percent of control. The PA14 ΔfpvA ΔfpvB strain complemented with pHERD20T, fpvA, or fpvB treated with TS (C) and DSX (D) in 10:90. […] All experiments are averaged from three independent biological replicates. Blue indicates growth and white indicates no growth. (H) Summary of growth phenotypes of WT PA14 and combinations of single, double, triple, and quadruple deletion mutants in fpvA, fpvB, fiuA, and foxA. […] Green indicates growth, whereas no growth is indicated in white. […] Representative plates are shown.
If there were no transporters for a particular siderophore, the mutant would fail to grow due to iron restriction.

[4] = tested on: PA14 ΔfpvA ΔfpvB ΔfiuA ΔfoxA pHERD20T-fpvB D219A; test: Growth of quadruple mutant expressing FpvB D219A; conditions: 10:90 + 2% arabinose
Protocol: as §1, §2, §3

[5] = tested on: PA14 ΔfpvA ΔfpvB ΔfiuA ΔfoxA pHERD20T-fpvB Y216T; test: Growth of quadruple mutant expressing FpvB Y216T; conditions: 10:90 + 2% arabinose
Protocol: as §1, §2, §3

Compound	growth with siderophore in the presence of DSX ([1]; 64 μg/mL DSX + 10 μg/mL pyoverdine)	growth versus control ([1]; DSX 64 μg/mL or pyoverdine 10 μg/mL alone, 10:90)	growth in the presence of siderophore [2]	growth in the presence of compound [3]	growth in the presence of siderophore [4]	growth in the presence of siderophore [5]
NCCCCC(NC(=O)C(CO)NC(=O)[C@@H]1CCN=C2C(NC(=O)CCC(=O)O)=Cc3cc(O)c(O)cc3N21)C(=O)NCC(=O)NC(CCCN(O)C=O)C(=O)NC1CCCCNC(=O)C(CO)NC(=O)C(CCCN(O)C=O)NC1=O (stereo partly drawn) [pyoverdine] (Suc-[X1][ξS][ξK]G[ξOrn(N(OH)CHO)][ξK][ξOrn(N(OH)CHO)][ξS]; lactam 6-C)	increased growth	increased growth				
CC(=O)N(O)CCCCCNC(=O)CCC(=O)N(O)CCCCCNC(=O)CCC(=O)N(O)CCCCCN [ferrioxamine B]			prevented growth	failed to grow	prevented growth	prevented growth

— publication PMC9973354 (mBio, 2022)
